“And” between values parts separate entries of the source, which are not always exact repeats. Equal values may be shown once. The source made the active and inactive calls.
Key:
Tumor necrosis factor = Tumor necrosis factor (Homo sapiens, UniProt P01375); assay: analog potency on TNFa NF-kB signaling – cell-based, revised, SAR follow-up (AID 2337); type: functional
Interleukin-8 [1] = molecular target: T1, Interleukin-8 (Homo sapiens, UniProt P10145); assay: SAR analysis of GM-Tri-DAP induced IL-8 secretion in MCF-7/NOD1 cells - Set 2. [Related pubchem assays (depositor defined):AID1575, AID1578, AID2333]; type: functional, cell-based
T1 sequence (P10145 whole entry): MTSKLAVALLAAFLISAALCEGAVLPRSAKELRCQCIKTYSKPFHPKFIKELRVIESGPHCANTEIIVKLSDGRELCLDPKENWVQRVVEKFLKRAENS

Interleukin-8 [2] = molecular target: T1, Interleukin-8; assay: SAR analysis of Tumor necrosis factor alpha (TNF-alpha) induced IL-8 secretion in MCF-7/NOD1 cells - Set 2. [Related pubchem assays (depositor defined):AID1575, AID2250, AID2260]; type: functional, cell-based
[3] = molecular target: Potassium voltage-gated channel subfamily KQT member 2 (Rattus norvegicus, UniProt O88943); assay: potentiation of rat KCNQ2 current – cell-based, retigabine-insensitive compounds, dose response (AID 2654); type: functional
[4] = molecular target: Ras and Rab interactor 1/Tyrosine-protein kinase ABL1 (Homo sapiens, UniProt P00519+Q13671); type: functional;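 further: biochemical TR-FRET dose-response test measuring inhibition of binding between Rin1 and Abl proteins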
[5] = molecular target: T2, Carboxy-terminal domain RNA polymerase II polypeptide A small phosphatase 1 (Homo sapiens, UniProt Q9GZU7); assay: CTDSP1 inhibitors, concentration-response, biochemical, absorbance readout, ultra-high-throughput screen actives (AID 540297); type: functional
T2 sequence (Q9GZU7 whole entry): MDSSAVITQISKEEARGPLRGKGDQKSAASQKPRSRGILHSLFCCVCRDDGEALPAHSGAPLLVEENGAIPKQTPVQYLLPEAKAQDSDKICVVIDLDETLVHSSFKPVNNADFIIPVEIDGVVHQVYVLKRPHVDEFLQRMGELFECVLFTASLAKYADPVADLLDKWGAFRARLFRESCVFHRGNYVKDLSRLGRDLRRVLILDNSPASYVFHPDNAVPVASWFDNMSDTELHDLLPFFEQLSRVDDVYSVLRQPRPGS

ORF 73 = ORF 73 (Human herpesvirus 8, UniProt O40947); assay: KSHV LANA DNA-binding disruption – biochemical, fluorescence polarization, cherry-picked samples, dose response (AID 504725); design: species or system Human gammaherpesvirus 8;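 further: fluorescence polarization of a labeled DNA duplex reporting LANA DNA binding; potency is for inhibitors that block LANA binding to the DNA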
[6] = molecular target: Polyadenylate-binding protein 1 (Homo sapiens, UniProt P11940); assay: blockers of PABP interaction with poly(A) – biochemical, fluorescence polarization, […] (AID 2014)
[7] = molecular target: T3, DNA dC->dU-editing enzyme APOBEC-3G (Homo sapiens, UniProt Q9HC16); type: functional
[8] = molecular target: Eukaryotic translation initiation factor 4H (Homo sapiens, UniProt Q15056); assay: eIF4H binding inhibition – biochemical, uHTS, fluorescence polarization, translation initiation inhibitor project, primary screen (AID 2012)
[9] = molecular target: T4, DNA dC->dU-editing enzyme APOBEC-3A (Homo sapiens, UniProt P31941); assay: Dose Response confirmation of small molecule APOBEC3A DNA Deaminase Inhibitors via a fluorescence-based single-stranded DNA deaminase assay. [Related pubchem assays (depositor defined):AID493011, AID493024]; type: functional
[10] = molecular target: G-protein coupled receptor 55 (Homo sapiens, UniProt Q9Y2T6); assay: selective activators of receptor GPR55 – imaging, U2OS cells, beta-arrestin-GFP redistribution, primary screen (AID 1961); type: functional
[11] = viability loss of HPDE-C7K cells – cell-based, fluorescence, HTS, primary screen (AID 431); type: functional; conditions: Homo sapiens
[12] = HPDE-C7 pancreatic duct cell viability loss – fluorescence, HTS (AID 430); type: functional, cell-based; conditions: Homo sapiens
[13] = molecular target: Acyl-homoserine lactone acylase PvdQ (Pseudomonas aeruginosa (strain LESB58), UniProt Q9I194); assay: PvdQ acylase enzyme activity blockers – biochemical, fluorescence, plate reader and imaging, cherry-picks, dose response (AID 493231)
Cytochrome P450 2D6 = Cytochrome P450 2D6 (Homo sapiens, UniProt P10635); assay: qHTS Assay for Inhibitors and Substrates of Cytochrome P450 2D6. [Related pubchem assays: 410 ]; type: ADME; conditions: read-out: Potency
Cytochrome P450 2C9 = Cytochrome P450 2C9 (Homo sapiens, UniProt P11712); conditions: Potency
HeLa = assay: viability loss in HeLa cells – cell-based, 24 h, cherry-picked samples, cytotoxicity control, dose response (AID 504726); type: functional; conditions: Homo sapiens;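 further: potency for cytotoxicity as loss of luminescence signal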
[14] = NIH3T3 cell viability loss – ATP luminescence, mouse fibroblasts, counter-screen, dose response (AID 2010); type: functional, cell-based;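 further: cells exposed to compound for about 90 hours before reading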
[15] = Trypanosoma cruzi growth suppression in host cells – NIH3T3 host cells, beta-gal luminescence, confirmation (AID 2044); type: functional, cell-based;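 further: intracellular parasites grown in NIH/3T3 mouse fibroblasts as host cells; luminescent beta-galactosidase reporter signal from transgenic T. cruzi replicating inside host cells; inhibitors lower the luminescence signal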
[16] = THP-1 cell cytotoxicity, dose response, cytotoxicity control for non-replicating M. tuberculosis project (AID 489025); type: functional
[17] = HepG2 cell cytotoxicity, dose response, cytotoxicity control for non-replicating M. tuberculosis project (AID 489018); type: functional; conditions: Mycobacterium tuberculosis
[18] = tested on: Streptococcus sp. 'group A'; assay: Streptococcus pyogenes SK(-)GAS viability under kanamycin – luminescence, BacTiterGlo, confirmation, counter-screen for streptokinase expression inhibitor project, dose response (AID 1900); type: functional, organism-based
cells [19] = assay: cells
[20] = Vero E6 cell cytotoxicity, dose response, cytotoxicity control for non-replicating M. tuberculosis project, secondary assay (AID 492998); type: functional, VeroE6; conditions: Vero C1008
INS1 = assay: INS-1E survival protection against cytokine death – cell-based, luminescence, retest, dose response (AID 449756); type: functional; conditions: Rattus norvegicus;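 further: cell death triggered by IL-1 beta plus TNF-alpha plus IFN-gamma mixture; protective hits raise ATP signal compared with cytokine alone wells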
[21] = Luminescence-based dose response cell-based high throughput screening assay for cytotoxic compounds using the IEC-6 intestinal epithelial cell line. [Related pubchem assays: 1858 (Summary AID.), 1825 (Counterscreen.), 1907 (Confirmation screen.)]; type: functional
Streptococcus = assay: GAS UMAA2166 growth inhibition – luminescence, BacTiterGlo, counter-screen for streptokinase expression inhibitor project, dose response (AID 1915); type: functional, organism-based;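 further: potency for reduction of bacterial viability or growth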
cells [22] = type: functional
Oxytocin receptor = Oxytocin receptor (Homo sapiens, UniProt P30559); assay: Fluorescence-based cell-based high throughput dose response assay for agonists of the Oxytocin Receptor (OXTR). [Related pubchem assays: 2435 (Primary screen (OXTR agonists in singlicate)), 434991 (Counterscreen (V1R agonists in triplicate)), 2482 (Summary (OXTR agonists)), 434963 (Confirmation screen (OXTR agonists in triplicate))]; type: functional
[23] = molecular target: T5, Voltage-gated N-type calcium channel alpha-1B subunit/Amyloid beta A4 precursor protein-binding family A member 1 (Homo sapiens, UniProt Q00975+Q02410); type: protein assay
[24] = viability of PTEN-deleted HCT116 cells – cell-based, HCT116 PTEN knockout, dose response (AID 1047); type: functional;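 further: HCT116 colon tumor cells with PTEN knocked out; cells exposed to compound for 60 hours before readout; potency for loss of cell viability measured by luminescence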
Vasopressin V1a receptor = Vasopressin V1a receptor (Homo sapiens, UniProt P37288); assay: Counterscreen for Oxytocin Receptor (OXTR) agonists: Fluorescence-based cell-based high throughput dose response assay to identify agonists of the vasopressin 1 receptor (V1R). [Related pubchem assays: 2435 (Primary screen (OXTR agonists in singlicate)), 434991 (Counterscreen (V1R agonists in triplicate)), 2482 (Summary (OXTR agonists)) …; type: functional
[25] = molecular target: T4, DNA dC->dU-editing enzyme APOBEC-3A; assay: A3A deaminase inhibition for selectivity – biochemical, dose response (AID 504722); type: functional
[26] = molecular target: T5, Voltage-gated N-type calcium channel alpha-1B subunit/Amyloid beta A4 precursor protein-binding family A member 1; type: protein assay; remark: listed apart in the source
[27] = molecular target: Eukaryotic translation initiation factor 4E (Mus musculus, UniProt P63073); assay: blockers of eIF4G binding by eIF4E – biochemical, TR-FRET, dose response (AID 855); type: functional;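 further: potency for disrupting eIF4E binding to eIF4GI seen as loss of FRET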
[28] = molecular target: T3, DNA dC->dU-editing enzyme APOBEC-3G; assay: Dose Response confirmation of small molecule APOBEC3G DNA Deaminase Inhibitors via a fluorescence-based single-stranded DNA deaminase assay. [Related pubchem assays (depositor defined):AID493012, AID493028]; type: functional

Sequence of Tumor necrosis factor (P01375 whole entry): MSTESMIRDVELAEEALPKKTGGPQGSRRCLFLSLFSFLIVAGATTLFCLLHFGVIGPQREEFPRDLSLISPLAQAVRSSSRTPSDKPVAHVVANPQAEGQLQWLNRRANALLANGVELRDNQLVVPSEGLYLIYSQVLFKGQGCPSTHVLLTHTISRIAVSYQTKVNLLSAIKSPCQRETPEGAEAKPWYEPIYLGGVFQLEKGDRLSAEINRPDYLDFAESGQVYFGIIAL
T4 sequence (P31941 whole entry): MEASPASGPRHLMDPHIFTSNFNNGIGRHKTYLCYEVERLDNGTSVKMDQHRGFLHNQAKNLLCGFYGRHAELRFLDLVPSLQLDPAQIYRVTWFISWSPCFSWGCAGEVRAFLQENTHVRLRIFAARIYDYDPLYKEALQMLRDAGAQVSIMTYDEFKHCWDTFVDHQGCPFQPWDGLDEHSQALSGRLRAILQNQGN
T5 sequence (Q00975 whole entry): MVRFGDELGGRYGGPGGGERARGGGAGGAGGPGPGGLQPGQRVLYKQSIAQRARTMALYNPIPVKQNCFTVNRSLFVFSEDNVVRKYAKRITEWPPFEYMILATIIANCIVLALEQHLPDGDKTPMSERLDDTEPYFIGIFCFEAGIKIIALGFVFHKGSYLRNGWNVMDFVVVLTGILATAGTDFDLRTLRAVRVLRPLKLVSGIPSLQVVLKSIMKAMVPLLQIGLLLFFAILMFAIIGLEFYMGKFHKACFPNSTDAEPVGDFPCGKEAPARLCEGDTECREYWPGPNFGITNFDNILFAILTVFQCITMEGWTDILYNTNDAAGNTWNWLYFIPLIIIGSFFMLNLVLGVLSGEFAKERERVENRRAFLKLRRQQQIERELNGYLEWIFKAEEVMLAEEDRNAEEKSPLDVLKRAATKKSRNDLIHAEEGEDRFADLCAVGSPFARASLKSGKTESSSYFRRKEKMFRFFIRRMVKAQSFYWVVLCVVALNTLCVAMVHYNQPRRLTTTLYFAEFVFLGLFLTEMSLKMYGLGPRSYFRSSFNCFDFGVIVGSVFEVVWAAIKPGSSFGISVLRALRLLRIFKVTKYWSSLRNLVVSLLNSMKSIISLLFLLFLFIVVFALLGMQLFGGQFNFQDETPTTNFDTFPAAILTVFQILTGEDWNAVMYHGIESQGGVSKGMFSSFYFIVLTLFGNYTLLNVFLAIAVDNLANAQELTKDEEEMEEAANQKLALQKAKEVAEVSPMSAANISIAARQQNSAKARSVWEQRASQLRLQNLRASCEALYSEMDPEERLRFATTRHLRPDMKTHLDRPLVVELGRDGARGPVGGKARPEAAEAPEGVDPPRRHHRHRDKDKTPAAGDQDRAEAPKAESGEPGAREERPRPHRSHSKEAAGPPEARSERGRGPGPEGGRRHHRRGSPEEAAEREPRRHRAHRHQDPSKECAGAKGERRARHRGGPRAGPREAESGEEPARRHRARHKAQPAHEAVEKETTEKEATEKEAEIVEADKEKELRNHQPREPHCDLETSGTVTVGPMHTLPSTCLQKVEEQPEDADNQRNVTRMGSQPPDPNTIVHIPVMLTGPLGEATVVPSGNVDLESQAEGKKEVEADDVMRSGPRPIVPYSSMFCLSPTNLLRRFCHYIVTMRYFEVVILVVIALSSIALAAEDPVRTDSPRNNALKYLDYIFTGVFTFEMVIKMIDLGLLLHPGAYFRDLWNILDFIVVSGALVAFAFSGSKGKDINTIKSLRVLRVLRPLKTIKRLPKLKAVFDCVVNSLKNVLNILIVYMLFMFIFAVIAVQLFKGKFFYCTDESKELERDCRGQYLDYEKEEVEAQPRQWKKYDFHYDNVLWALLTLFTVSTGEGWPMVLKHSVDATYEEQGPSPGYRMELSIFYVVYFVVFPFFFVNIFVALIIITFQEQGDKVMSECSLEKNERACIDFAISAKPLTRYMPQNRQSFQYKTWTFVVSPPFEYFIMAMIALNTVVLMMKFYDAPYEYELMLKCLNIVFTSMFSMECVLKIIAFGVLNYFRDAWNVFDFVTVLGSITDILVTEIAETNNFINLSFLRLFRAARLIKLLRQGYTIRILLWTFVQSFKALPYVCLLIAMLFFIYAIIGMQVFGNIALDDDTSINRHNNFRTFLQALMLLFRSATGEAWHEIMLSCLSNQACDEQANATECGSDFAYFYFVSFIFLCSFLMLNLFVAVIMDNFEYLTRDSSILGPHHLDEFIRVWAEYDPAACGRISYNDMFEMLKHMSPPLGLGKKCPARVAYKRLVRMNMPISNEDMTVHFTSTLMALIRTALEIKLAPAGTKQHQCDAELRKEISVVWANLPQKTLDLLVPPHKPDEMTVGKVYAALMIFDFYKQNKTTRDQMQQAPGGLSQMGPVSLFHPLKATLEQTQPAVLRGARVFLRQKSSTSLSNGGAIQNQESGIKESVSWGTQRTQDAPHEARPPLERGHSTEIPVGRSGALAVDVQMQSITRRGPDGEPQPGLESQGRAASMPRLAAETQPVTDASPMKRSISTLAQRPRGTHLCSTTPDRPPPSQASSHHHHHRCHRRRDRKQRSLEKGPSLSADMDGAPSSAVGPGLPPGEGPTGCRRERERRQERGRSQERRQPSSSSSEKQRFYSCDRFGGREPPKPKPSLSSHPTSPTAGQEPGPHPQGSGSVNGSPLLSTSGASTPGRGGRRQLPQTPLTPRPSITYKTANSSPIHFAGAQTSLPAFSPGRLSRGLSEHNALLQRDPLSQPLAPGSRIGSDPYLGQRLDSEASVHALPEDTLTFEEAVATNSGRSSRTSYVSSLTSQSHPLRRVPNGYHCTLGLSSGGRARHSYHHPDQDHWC
T5 sequence (Q02410 whole entry): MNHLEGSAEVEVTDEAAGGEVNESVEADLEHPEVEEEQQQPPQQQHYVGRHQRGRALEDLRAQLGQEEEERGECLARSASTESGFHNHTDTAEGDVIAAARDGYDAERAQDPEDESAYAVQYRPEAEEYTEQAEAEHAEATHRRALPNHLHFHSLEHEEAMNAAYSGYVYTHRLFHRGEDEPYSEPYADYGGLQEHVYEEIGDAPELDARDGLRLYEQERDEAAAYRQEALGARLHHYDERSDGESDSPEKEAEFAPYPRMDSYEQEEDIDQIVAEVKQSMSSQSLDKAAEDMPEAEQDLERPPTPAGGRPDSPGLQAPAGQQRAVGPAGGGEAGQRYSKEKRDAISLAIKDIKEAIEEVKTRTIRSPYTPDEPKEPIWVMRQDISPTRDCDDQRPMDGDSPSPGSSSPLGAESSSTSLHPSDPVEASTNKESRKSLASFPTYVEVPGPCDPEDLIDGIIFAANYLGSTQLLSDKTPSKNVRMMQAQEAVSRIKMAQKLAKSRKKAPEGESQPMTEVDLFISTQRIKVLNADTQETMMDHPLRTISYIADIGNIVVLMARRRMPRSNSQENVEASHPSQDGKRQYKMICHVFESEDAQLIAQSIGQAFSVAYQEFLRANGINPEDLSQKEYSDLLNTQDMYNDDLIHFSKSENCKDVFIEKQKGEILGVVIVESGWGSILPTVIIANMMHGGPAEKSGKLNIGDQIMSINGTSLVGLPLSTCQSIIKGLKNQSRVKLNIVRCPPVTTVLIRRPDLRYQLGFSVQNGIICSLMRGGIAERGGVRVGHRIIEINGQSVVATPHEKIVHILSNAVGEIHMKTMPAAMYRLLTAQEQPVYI
Sequence of Cytochrome P450 2C9 (P11712 whole entry): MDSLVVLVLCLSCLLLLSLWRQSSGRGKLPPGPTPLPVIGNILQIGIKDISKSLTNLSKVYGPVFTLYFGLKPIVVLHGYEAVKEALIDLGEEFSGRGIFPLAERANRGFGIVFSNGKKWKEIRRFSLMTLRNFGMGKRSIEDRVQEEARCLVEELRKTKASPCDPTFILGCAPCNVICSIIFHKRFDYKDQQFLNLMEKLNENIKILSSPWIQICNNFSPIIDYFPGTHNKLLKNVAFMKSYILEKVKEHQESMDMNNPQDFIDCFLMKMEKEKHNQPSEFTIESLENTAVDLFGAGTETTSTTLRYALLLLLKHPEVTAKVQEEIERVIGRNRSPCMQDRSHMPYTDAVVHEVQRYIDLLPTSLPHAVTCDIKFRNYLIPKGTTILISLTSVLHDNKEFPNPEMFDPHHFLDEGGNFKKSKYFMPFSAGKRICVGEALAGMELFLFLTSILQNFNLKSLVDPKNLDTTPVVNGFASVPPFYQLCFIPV
T3 sequence (Q9HC16 whole entry): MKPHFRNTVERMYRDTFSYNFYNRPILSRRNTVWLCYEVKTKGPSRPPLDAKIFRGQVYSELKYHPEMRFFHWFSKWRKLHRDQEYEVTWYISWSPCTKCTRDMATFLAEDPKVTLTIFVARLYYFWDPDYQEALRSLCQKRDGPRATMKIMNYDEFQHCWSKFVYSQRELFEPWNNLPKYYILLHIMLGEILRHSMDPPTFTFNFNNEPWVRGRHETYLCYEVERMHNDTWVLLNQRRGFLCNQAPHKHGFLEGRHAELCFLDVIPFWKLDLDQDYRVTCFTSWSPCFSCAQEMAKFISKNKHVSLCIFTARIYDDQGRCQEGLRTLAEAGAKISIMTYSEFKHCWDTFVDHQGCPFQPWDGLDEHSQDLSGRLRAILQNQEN
Sequence of Vasopressin V1a receptor (P37288 whole entry): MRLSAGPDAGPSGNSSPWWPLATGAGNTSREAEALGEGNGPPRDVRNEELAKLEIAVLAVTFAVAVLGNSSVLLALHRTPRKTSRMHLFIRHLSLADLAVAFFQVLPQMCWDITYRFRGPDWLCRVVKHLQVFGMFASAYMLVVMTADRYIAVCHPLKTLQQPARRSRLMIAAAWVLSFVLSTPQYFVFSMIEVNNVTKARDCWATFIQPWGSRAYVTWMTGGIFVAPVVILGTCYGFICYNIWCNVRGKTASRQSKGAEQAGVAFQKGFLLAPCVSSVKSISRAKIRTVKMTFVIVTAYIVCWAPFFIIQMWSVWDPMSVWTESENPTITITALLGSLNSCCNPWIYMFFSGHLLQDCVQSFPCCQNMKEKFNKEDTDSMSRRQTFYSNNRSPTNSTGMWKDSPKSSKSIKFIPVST

With Nc1nc2ccccc2n1Cc1ccc(Cl)cc1 the IC50 (Tumor necrosis factor) was 8.92 µM (active) and > 20 µM (inactive), the IC50 (Interleukin-8 [1]) was 12.1 µM (active) and the IC50 (Interleukin-8 [2]) was 19.8 µM (active).
In the case of CCC(C)c1ccc(NC(=S)Nc2cccnc2)cc1 (centres undefined), the EC50 [3] is reported as 12.6 µM (active).
For COc1cc(O)c(C(C)=O)c(CC(=O)O)c1, the IC50 [4] was 15.6 µM (inactive), the IC50 [5] was 3.5 µM (active) and the AC50 (ORF 73) was 46.3 µM (active).
In the case of Cc1nc2ccc(NC(=O)C3COc4ccccc4O3)cc2s1 (centres undefined), the IC50 [6] is reported as 11.1 µM (active), the IC50 [7] is reported as 6.02 µM (active) and the IC50 [8] is reported as > 100 µM (inactive). For the same compound, the IC50 [9] was 6.32 µM (active).
For Cc1ccc(NC(=O)Nc2cccnc2)cc1F, the EC50 [3] was 9.14 µM (active).
For COc1ccc(C2(O)CC3CCC(C2)N3c2cc(C)nc(-c3ccccc3)n2)cc1 (centres undefined), the EC50 [10] was 7.35 µM (active), the EC50 [11] was > 20 µM (not active) and the EC50 [12] was > 20 µM (not active).
With Cc1ccc(C)c(S(=O)(=O)NC2CCSC2=O)c1 (centres undefined) the AC50 [13] was 3.22 µM (active).
With CC(=O)[C@@H]1[C@H]2[C@@H](C(=O)[C@H]3OC[C@H]2O3)[C@@H]2C=Cc3ccccc3N12 the AC50 (Cytochrome P450 2D6) was 39.8 µM (inconclusive) and the AC50 (Cytochrome P450 2C9) was 31.6 µM (inconclusive).
With COc1ccc(-c2cc(=O)c3ccc(O)cc3o2)cc1 the AC50 (Cytochrome P450 2C9) was 3.98 µM (inconclusive).
In the case of C/C(=N\Nc1nc2c(s1)CCCC2)c1ccc(Cl)cc1, the AC50 (HeLa) is reported as 83.5 µM (active).
With C/C(=N\NC(=O)c1ccc(Cl)cc1)c1ccccn1 the EC50 [14] was 1.04 µM (active), the EC50 [15] was < 100 nM (active) and the CC50 [16] was 551 nM (active). For the same compound, the CC50 [17] was 6.87 µM (active), the EC50 [18] was 2.33 µM (active) and the EC50 (cells [19]) was 64 nM (active). The CC50 [20] was 1.52 µM (active), the AC50 (INS1) was 340 nM (active) and the IC50 [21] was 546 nM (active). The EC50 (Streptococcus) was 7.47 µM (active) and the IC50 (cells [22]) was 800 nM (active).
With Cc1cc(Cl)ccc1/N=c1\ssnc1Cl the EC50 (Oxytocin receptor) was > 29.9 µM (not active), the IC50 [23] was 2.3 µM (active) and the EC50 [24] was 49 µM (active). For the same compound, the EC50 (Vasopressin V1a receptor) was > 29.9 µM (not active), the IC50 [25] was > 100 µM (inactive) and the IC50 [26] was 15.4 µM (active). The IC50 [27] was > 64 µM (inactive) and the IC50 [28] was 11.9 µM (active).

Source: ChEMBL document CHEMBL1201862, “PubChem BioAssay data set” (2004)
